# Experimental data as given in patent US8586588B2, “Aryl pyridazinone derivatives and their use as H3 receptor ligands” (Cephalon, Inc., priority 2006, dated 2013).
# pKi: −log10 of the molar value. Where two headings read alike, the source gives them in different places.
# Experiments:
# [1] = molecular target: T1, rat histamine H3 receptor (Rattus norvegicus, UniProt Q9QYN8); assay: Rat H3 radioligand binding ([3H]-N-alpha-methylhistamine, CHO-A3 cell membranes, SPA)
# T1 construct: encoding the entire 445-amino-acid rat histamine H3 receptor; expressed in transfected cells
# T1 sequence (Q9QYN8 whole entry): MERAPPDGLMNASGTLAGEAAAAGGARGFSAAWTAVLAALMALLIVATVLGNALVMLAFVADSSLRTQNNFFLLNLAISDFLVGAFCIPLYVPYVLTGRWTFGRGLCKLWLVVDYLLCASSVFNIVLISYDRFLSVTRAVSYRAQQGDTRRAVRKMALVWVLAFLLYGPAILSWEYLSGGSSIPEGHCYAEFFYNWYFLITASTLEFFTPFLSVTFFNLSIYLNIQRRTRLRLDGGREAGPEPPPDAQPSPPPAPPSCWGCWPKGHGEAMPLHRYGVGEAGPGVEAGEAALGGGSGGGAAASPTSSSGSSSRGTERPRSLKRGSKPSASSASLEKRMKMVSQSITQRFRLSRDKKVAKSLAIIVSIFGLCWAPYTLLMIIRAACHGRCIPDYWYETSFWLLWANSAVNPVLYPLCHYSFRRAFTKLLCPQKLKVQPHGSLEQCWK
# In short: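 Scintillation proximity displacement of about 1 nM [3H]-N-alpha-methylhistamine, test compound 0.01 nM-30 μM, 4 h, room temperature, in the dark. Receptor source: rat H3 stably transfected into CHO-A3 cells, 10 μg membrane protein, Tris-HCl pH 7.4/MgCl2/BSA buffer. Nonspecific binding defined by 10 μM clobenpropit.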
# [2] = molecular target: T2, human H3 receptor (Homo sapiens, UniProt Q9Y5N1); assay: Human H3 radioligand binding ([3H]-N-alpha-methylhistamine, CHO cell membranes, SPA); conditions: binding constant as letter class
# T2 construct: expressed in transfected cells
# T2 sequence (Q9Y5N1 whole entry): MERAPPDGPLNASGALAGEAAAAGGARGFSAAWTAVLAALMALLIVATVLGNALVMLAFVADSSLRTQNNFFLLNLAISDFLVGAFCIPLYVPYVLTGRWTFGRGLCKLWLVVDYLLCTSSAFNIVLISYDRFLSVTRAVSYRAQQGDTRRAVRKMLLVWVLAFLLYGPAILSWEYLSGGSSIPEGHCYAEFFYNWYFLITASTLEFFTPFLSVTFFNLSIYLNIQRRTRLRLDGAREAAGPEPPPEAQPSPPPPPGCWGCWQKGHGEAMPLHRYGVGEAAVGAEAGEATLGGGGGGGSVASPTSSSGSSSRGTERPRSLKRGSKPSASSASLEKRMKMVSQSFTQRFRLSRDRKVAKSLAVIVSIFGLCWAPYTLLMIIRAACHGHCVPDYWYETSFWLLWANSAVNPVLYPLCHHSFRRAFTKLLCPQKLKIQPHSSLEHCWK
# In short: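 Scintillation proximity format: bead-proximal [3H]-N-alpha-methylhistamine (approximately 1 nM final) bound to human H3 receptor in CHO membranes was counted after 4 h at room temperature, light-protected. Buffer was pH 7.4 Tris/MgCl2/BSA; test compounds spanned 0.01 nM-30 μM; 10 μM clobenpropit set non-specific binding.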
# [3] = Table A, binding constant as letter class, read-out: Rat H3 Ki
# [4] = Table B, binding constant as letter class, read-out: rat H3 Ki
SMILES,melting point,pKi [1],pKi ([2]; Table A),"pKi [1, 3]",pKi ([2]; Table B),"pKi [1, 4]"
"CC1CC(=O)NN=C1c1ccc(OC2CCN(C3CCC3)CC2)cc1 (racemic) [Example 189, 6-[4-(1-Cyclobutyl-piperidin-4-yloxy)-phenyl]-5-methyl-4,5-dihydro-2H-pyridazin-3-one]",163 to 165 °C,7.00 to 10.00,,,,
"Cn1nc(-c2ccc(OCC3CCN(C(=O)OC(C)(C)C)CC3)cc2)c2ccccc2c1=O [Example 62, 4-[4-(3-Methyl-4-oxo-3,4-dihydro-phthalazin-1-yl)-phenoxymethyl]-piperidine-1-carboxylic acid tert-butyl ester]",167 to 169 °C,,< 6.00,< 6.00,,
"Cn1nc(-c2ccc(OCC3CCN(C(=O)OC(C)(C)C)CC3)cc2)ccc1=O [Example 65, 4-[4-(1-Methyl-6-oxo-1,6-dihydro-pyridazin-3-yl)-phenoxymethyl]-piperidine-1-carboxylic acid tert-butyl ester]",164 to 166 °C,,< 6.00,< 6.00,,
"Cn1nc(-c2ccc(OC3CCN(C4CCCC4)CC3)cc2)ccc1=O [Example 83, 6-[4-(1-Cyclopentyl-piperidin-4-yloxy)-phenyl]-2-methyl-2H-pyridazin-3-one]",129 to 132 °C,,,,7.00 to 10.00,7.00 to 10.00
"C[C@@H]1CCCN1CCCOc1c(F)cc(-c2ccc(=O)n(C)n2)cc1F [Example 84, 6-{3,5-Difluoro-4-[3-((R)-2-methyl-pyrrolidin-1-yl)-propoxy]-phenyl}-2-methyl-2H-pyridazin-3-one]",175 to 178 °C,,,,7.00 to 10.00,7.00 to 10.00
"Cc1cccc(-n2ncc(-c3ccc(OCCCN4CCC[C@H]4C)cc3)cc2=O)n1 [Example 98, 2-(6-Methyl-pyridin-2-yl)-5-{4-[3-((R)-2-methyl-pyrrolidin-1-yl)-propoxy]-phenyl}-2H-pyridazin-3-one]",118 to 120 °C,,,,7.00 to 10.00,7.00 to 10.00
"Cc1n[nH]c(=O)cc1-c1ccc(OC2CCNCC2)cc1.Cl [Example 102, 6-methyl-5-[4-(piperidin-4-yloxy)-phenyl]-2H-pyridazin-3-one]",225 to 227 °C,,,,< 6.00,< 6.00
"CC1=NNC(=O)CC1c1ccc(OC2CCN(C3CCC3)CC2)cc1 (stereo not drawn) [Example 110, 5-[4-(1-Cyclobutyl-piperidin-4-yloxy)-phenyl]-6-methyl-4,5-dihydro-2H-pyridazin-3-one]",178 to 179 °C,,,,7.00 to 10.00,7.00 to 10.00
"O=C1CC(c2ccccn2)C(c2ccc(OC3CCN(C4CCC4)CC3)cc2)=NN1 (stereo not drawn) [Example 114, 6-[4-(1-Cyclobutyl-piperidin-4-yloxy)-phenyl]-5-pyridin-2-yl-4,5-dihydro-2H-pyridazin-3-one]",199 °C (dec.),,,,7.00 to 10.00,7.00 to 10.00
"O=c1cc(-c2ccccn2)c(-c2ccc(OC3CCN(C4CCC4)CC3)cc2)n[nH]1 [Example 115, 6-[4-(1-Cyclobutyl-piperidin-4-yloxy)-phenyl]-5-pyridin-2-yl-2H-pyridazin-3-one]",203 °C (dec.),,,,7.00 to 10.00,7.00 to 10.00
"C[C@@H]1CCCN1CCCOc1ccc(-c2ccc(=O)[nH]n2)cc1C#N [Example 129, 2-[3-((R)-2-Methyl-pyrrolidin-1-yl)-propoxy]-5-(6-oxo-1,6-dihydro-pyridazin-3-yl)-benzonitrile]",> 200 °C (dec.),,,,7.00 to 10.00,6.30 to 7.00
"C[C@H](COc1ccc(-c2cn[nH]c(=O)c2)cc1)CN1CCC[C@H]1C [Example 225, 5-{4-[(S)-2-Methyl-3-((R)-2-methyl-pyrrolidin-1-yl)-propoxy]-phenyl}-2H-pyridazin-3-one]",154 to 156 °C,7.00 to 10.00,,,,
"C[C@@H](COc1ccc(-c2cn[nH]c(=O)c2)cc1)CN1CCC[C@H]1C [Example 226, 5-{4-[(R)-2-Methyl-3-((R)-2-methyl-pyrrolidin-1-yl)-propoxy]-phenyl}-2H-pyridazin-3-one]",130 to 133 °C,7.00 to 10.00,,,,
